The compounds below were run against IDO (Homo sapiens (Human), UniProt P14902) (assay: LLE_IDO_ABS_DR (IDO assay, method not described)).
IDO, sequence (P14902 whole entry): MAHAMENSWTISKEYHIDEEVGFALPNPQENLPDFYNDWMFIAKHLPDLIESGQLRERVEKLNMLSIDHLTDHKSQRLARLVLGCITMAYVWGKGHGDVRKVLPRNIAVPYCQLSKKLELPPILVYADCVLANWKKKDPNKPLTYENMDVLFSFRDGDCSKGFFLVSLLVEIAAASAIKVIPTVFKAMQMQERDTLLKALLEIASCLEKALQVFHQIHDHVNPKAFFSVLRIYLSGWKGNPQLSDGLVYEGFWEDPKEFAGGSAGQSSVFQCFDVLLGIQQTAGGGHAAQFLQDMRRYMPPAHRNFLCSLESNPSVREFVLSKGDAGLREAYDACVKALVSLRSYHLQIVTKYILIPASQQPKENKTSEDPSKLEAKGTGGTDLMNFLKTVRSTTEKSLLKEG

Row | IC50 [µM] | Structure (SMILES)
1 | 0.52 | Cc1ccc(NC(=O)Nc2cc(-c3ccccc3C(=O)O)ccc2OCc2ccccc2)cc1 [Example 294]
2 | 0.69 | CCCOc1c(NC(=O)Nc2ccc(C3CC3)cc2)cc(-c2ccccc2-c2nnn[nH]2)cc1C1CC1 [Example 276, 1-(5-cyclopropyl-4-propoxy-2′-(1H-tetrazol-5-yl)-[1,1′-biphenyl]-3-yl)-3-(4-cyclopropylphenyl)urea]
3 | 0.1 | CCCCC(Oc1ccc(-c2ccccc2-c2nnn[nH]2)cc1NC(=O)Nc1ccc(C)cc1)C1CCCCC1 (centres unmarked) [Example 272]
4 | 0.25 | Cc1ccc(NC(=O)Nc2cc(-c3ccccc3-c3nnn[nH]3)ccc2OCc2ccccc2)cc1 [Example 28, 1-(4-(Benzyloxy)-2′-(1H-tetrazol-5-yl)-[1,1′-biphenyl]-3-yl)-3-(p-tolyl)urea]
5 | 0.04 | CCC[C@@H](Oc1ccc(-c2ccccc2-c2nnn[nH]2)cc1NC(=O)Nc1ccc(C)cc1)c1ccccc1 [Example 273]
6 | 1.38 | O=C(Nc1ccccc1F)Nc1cc(-c2cc(F)ccc2C(=O)O)cc(C/C=C/C(F)(F)F)c1OCCC(F)(F)F [Example 282]
7 | 0.31 | O=C(Nc1ccc(Cl)cc1)Nc1cc(-c2ccccc2-c2nnn[nH]2)cc(CC2CC2)c1OCC1CC1 [Example 327]
8 | 5.45 | CCCC(Oc1ccc(-c2cc(F)ccc2C(=O)O)cc1NC(=O)Nc1ccc(C)cc1)c1ccccc1Cl (centres unmarked) [Example 306]
9 | 0.32 | O=C(Nc1ccc(F)cc1F)Nc1cc(-c2ccccc2-c2nnn[nH]2)cc(CC2CC2)c1OCCC(F)(F)F [Example 318]
10 | 0.14 | CC/C=C/Cc1cc(-c2ccccc2-c2nnn[nH]2)cc(NC(=O)Nc2ccc(C)cc2)c1OCCC [Example 285]
11 | 0.09 | Cc1ccc(NC(=O)Nc2cc(-c3cc(F)ccc3C(=O)O)ccc2OC(CCC(F)(F)F)c2ccccc2)cc1 (centres unmarked) [Example 309]
12 | 0.82 | COc1ccc(-c2ccc(OC(C(C)C)C(C)C)c(NC(=O)Nc3ccccc3F)c2)cc1C(=O)O [Example 12, 4′-((2,4-Dimethylpentan-3-yl)oxy)-3′-(3-(2-fluorophenyl)ureido)-4-methoxy-[1,1′-biphenyl]-3-carboxylic acid]
13 | 0.86 | CCCC(Oc1ccc(-c2ccccc2-c2nnn[nH]2)cc1NC(=O)Nc1ccc(C)cc1)c1ccc(Cl)cc1 (centres unmarked) [Example 308]
14 | 0.2 | Cc1ccc(NC(=O)Nc2cc(-c3cc(F)ccc3C(=O)O)ccc2OC(CCC(F)(F)F)c2ccc(Cl)cc2)cc1 (centres unmarked) [Example 311]
15 | 2.15 | CC(C)(C)c1ccccc1Oc1ccc(-c2cncc(C(=O)O)c2)cc1NC(=O)Nc1ccc(OC(F)(F)F)cc1 [Example 266, 5-(4-(2-tert-butylphenoxy)-3-(3-(4-(trifluoromethoxy)phenyl)ureido)phenyl)nicotinic acid]
16 | 0.08 | Cc1ccc(NC(=O)Nc2cc(-c3ccccc3-c3nnn[nH]3)ccc2OC(CCC(F)(F)F)c2ccc(Cl)cc2)cc1 (centres unmarked) [Example 312]
17 | 0.72 | Cc1ccc(NC(=O)Nc2cc(-c3ccccc3C(=O)O)ccc2OC(C(C)C)C(C)C)cc1 [Example 10, 4′-((2,4-Dimethylpentan-3-yl)oxy)-3′-(3-(p-tolyl)ureido)-[1,1′-biphenyl]-2-carboxylic acid]
18 | 0.31 | CCCOc1c(CCC)cc(-c2cc(F)ccc2C(=O)O)cc1NC(=O)Nc1ccc(C)cc1 [Example 18, 5-Fluoro-4′-propoxy-3′-propyl-5′-(3-(p-tolyl)ureido)-[1,1′-biphenyl]-2-carboxylic acid]
19 | 0.13 | O=C(Nc1ccc(C2CC2)cc1)Nc1cc(-c2ccccc2-c2nnn[nH]2)cc(CC2CC2)c1OC1CCOCC1 [Example 328]
20 | 1.74 | CCC[C@H](Oc1ccc(-c2cc(F)ccc2C(=O)O)cc1NC(=O)Nc1ccc(C)cc1)c1ccccc1 [Example 275]
21 | 0.08 | CCCCc1cc(-c2cc(F)ccc2C(=O)O)cc(NC(=O)Nc2ccc(C)cc2)c1OCCC [Example 24]
22 | 0.82 | O=C(Nc1ccccc1F)Nc1cc(-c2ccccc2C(=O)O)cc(/C=C/C=C(F)F)c1OCCC(F)(F)F [Example 305]
23 | 0.04 | Cc1ccc(NC(=O)Nc2cc(-c3cc(F)ccc3C(=O)O)ccc2OC(CCN2CCOCC2)c2ccccc2)cc1 (centres unmarked) [Example 307]
24 | 0.05 | CCCOc1c(CCCc2ccccc2)cc(-c2ccccc2-c2nnn[nH]2)cc1NC(=O)Nc1ccccc1F [Example 39, 1-(2-Fluorophenyl)-3-(5-(3-phenylpropyl)-4-propoxy-2′-(1H-tetrazol-5-yl)biphenyl-3-yl)urea]
25 | 0.16 | CC(C)C(Oc1ccc(-c2ccccc2-c2nnn[nH]2)cc1NC(=O)Nc1ccccc1F)C(C)C [Example 11, 1-(4-((2,4-Dimethylpentan-3-yl)oxy)-2′-(1H-tetrazol-5-yl)-[1,1′-biphenyl]-3-yl)-3-(2-fluorophenyl)urea]

Row | IC50 [µM] | Structure (SMILES)
26 | 0.03 | Cc1ccc(NC(=O)Nc2cc(-c3ccccc3-c3nn[nH]n3)ccc2OC(C(C)C)C(C)C)cc1 [Example 9, 1-(4-((2,4-Dimethylpentan-3-yl)oxy)-2′-(1H-tetrazol-5-yl)-[1,1′-biphenyl]-3-yl)-3-(p-tolyl)urea]
27 | 1.49 | CC(C)(C)c1ccccc1Oc1ccc(-c2ccc(Cl)cc2-c2nnn[nH]2)cc1NC(=O)Nc1ccccc1Cl [Example 198, 1-(4-(2-tert-butylphenoxy)-4′-chloro-2′-(1H-tetrazol-5-yl)biphenyl-3-yl)-3-(2-chlorophenyl)urea]
28 | 0.38 | CCCC(CCC)Oc1ccc(-c2cc(F)ccc2C(=O)O)cc1NC(=O)Nc1ccc(C)cc1 [Example 15, 5-Fluoro-4′-(heptan-4-yloxy)-3′-(3-(p-tolyl)ureido)-[1,1′-biphenyl]-2-carboxylic acid]
29 | 0.46 | Cc1ccc(NC(=O)Nc2cc(-c3ccccc3-c3nnn[nH]3)cc(CC3CC3)c2Oc2ccccc2)cc1 [Example 322]
30 | 0.17 | C/C=C/Cc1cc(-c2ccccc2C(=O)O)cc(NC(=O)Nc2ccc(C)cc2)c1OCCC [Example 20, (E)-3′-(But-2-en-1-yl)-4′-propoxy-5′-(3-(p-tolyl)ureido)-[1,1′-biphenyl]-2-carboxylic acid]
31 | 1.49 | C=CC(c1ccccc1)c1cc(-c2ccccc2-c2nnn[nH]2)cc(NC(=O)Nc2ccc(C)cc2)c1OCCC(F)(F)F (centres unmarked) [Example 290]
32 | 0.09 | Cc1ccc(NC(=O)Nc2cc(-c3ccc(Cl)cc3-c3nnn[nH]3)ccc2Oc2ccccc2C(C)(C)C)cc1 [Example 199, 1-(4-(2-tert-butylphenoxy)-4′-chloro-2′-(1H-tetrazol-5-yl)biphenyl-3-yl)-3-p-tolylurea]
33 | 0.13 | Cc1cccc(NC(=O)Nc2cc(-c3ccccc3-c3nnn[nH]3)cc(CC3CC3)c2OC2CCOCC2)c1 [Example 326]
34 | 2.36 | O=C(Nc1ccc(Cl)cc1)Nc1cc(-c2ccccc2-c2nnn[nH]2)cc(CC2CC2)c1OCCC(F)(F)F [Example 314, 1-(4-chlorophenyl)-3-(5-(cyclopropylmethyl)-2′-(1H-tetrazol-5-yl)-4-(3,3,3-trifluoropropoxy)-[1,1′-biphenyl]-3-yl)urea]
35 | 0.1 | CCCOc1c(C/C=C/c2ccccc2)cc(-c2ccccc2C(=O)O)cc1NC(=O)Nc1ccc(C)cc1 [Example 35, 3′-Cinnamyl-4′-propoxy-5′-(3-p-tolylureido)biphenyl-2-carboxylic acid]
36 | 0.1 | C=CC(c1ccccc1)c1cc(-c2ccccc2-c2nnn[nH]2)cc(NC(=O)Nc2ccc(C)cc2)c1OCC(C)C (centres unmarked) [Example 299]
37 | 0.13 | CCCCc1cc(-c2cc(F)ccc2C(=O)O)cc(NC(=O)Nc2ccc(C)cc2)c1OCc1ccccc1 [Example 40, 4′-(Benzyloxy)-3′-butyl-5-fluoro-5′-(3-p-tolylureido)biphenyl-2-carboxylic acid]
38 | 0.85 | C/C=C/Cc1cc(-c2cc(F)ccc2C(=O)O)cc(NC(=O)Nc2ccc(C)cc2)c1OCc1ccccc1 [Example 27, (E)-4′-(Benzyloxy)-3′-(but-2-en-1-yl)-5-fluoro-5′-(3-(p-tolyl)ureido)-[1,1′-biphenyl]-2-carboxylic acid]
39 | 0.08 | Cc1cccc(NC(=O)Nc2cc(-c3ccccc3-c3nnn[nH]3)cc(CC3CC3)c2OCCC(F)(F)F)c1 [Example 315]
40 | 1.66 | O=C(Nc1ccc(F)cc1F)Nc1cc(-c2ccccc2-c2nnn[nH]2)cc(CC2CC2)c1Oc1ccccc1 [Example 329]
41 | 0.02 | CCC[C@@H](Oc1ccc(-c2cc(F)ccc2C(=O)O)cc1NC(=O)Nc1ccc(C)cc1)c1ccccc1 [Example 270]
42 | 1.1 | CCCCC(Oc1ccc(-c2cc(F)ccc2C(=O)O)cc1NC(=O)Nc1ccc(C)cc1)C1CCCCC1 (centres unmarked) [Example 269]
43 | 0.03 | CCCC(CCC)Oc1ccc(-c2ccccc2-c2nn[nH]n2)cc1NC(=O)Nc1ccc(C)cc1 [Example 13, 1-(4-(Heptan-4-yloxy)-2′-(1H-tetrazol-5-yl)-[1,1′-biphenyl]-3-yl)-3-(p-tolyl)urea]
44 | 0.03 | CCC(Oc1ccc(-c2ccccc2-c2nnn[nH]2)cc1NC(=O)Nc1ccc(C)cc1)c1ccccc1 (centres unmarked) [Example 271]
45 | 2.97 | Cc1cccc(NC(=O)Nc2cc(-c3ccccc3-c3nnn[nH]3)cc(CC3CC3)c2OCC2CC2)c1 [Example 325]
46 | 0.2 | Cc1ccc(NC(=O)Nc2cc(-c3ccc(F)cc3-c3nnn[nH]3)ccc2Oc2ccccc2C(C)(C)C)cc1 [Example 197, 1-(4-(2-tert-butylphenoxy)-4′-fluoro-2′-(1H-tetrazol-5-yl)biphenyl-3-yl)-3-p-tolylurea]
47 | 0.22 | O=C(Nc1ccc(OC(F)(F)F)cc1)Nc1cc(-c2ccccc2-c2nnn[nH]2)cc(CC2CC2)c1Oc1ccccc1 [Example 320]
48 | 0.13 | CCCCc1cc(-c2ccccc2C(=O)O)cc(NC(=O)Nc2ccc(C)cc2)c1OCCC [Example 23, 3′-Butyl-4′-propoxy-5′-(3-(p-tolyl)ureido)-[1,1′-biphenyl]-2-carboxylic acid]
49 | 0.13 | CCCOc1c(CCCc2ccccc2)cc(-c2ccccc2-c2nnn[nH]2)cc1NC(=O)Nc1ccc(C)cc1 [Example 37, 1-(5-(3-Phenylpropyl)-4-propoxy-2′-(1H-tetrazol-5-yl)biphenyl-3-yl)-3-p-tolylurea]

Row | Structure (SMILES) | IC50 [µM]
50 | Cc1ccc(NC(=O)Nc2cc(-c3cc(F)ccc3C(=O)O)ccc2OC(CCC(F)(F)F)c2ccccc2Cl)cc1 (centres unmarked) [Example 267, 4′-(1-(2-Chlorophenyl)-4,4,4-trifluorobutoxy)-5-fluoro-3′-(3-(p-tolyl)ureido)-[1,1′-biphenyl]-2-carboxylic acid] | 0.39

Source: patent US9765018B2, “IDO inhibitors” (BRISTOL-MYERS SQUIBB COMPANY, priority 2013, dated 2017)
